Data: patent US11541059B2, “Heterocyclic compounds and uses thereof” (Infinity Pharmaceuticals, Inc., priority 2014, dated 2023)

What was measured:
[1] = tested on: RANKL driven differentiation of osteoclasts from bone marrow macrophages; experiment: Osteoclast differentiation assay (TRAP); format: cell-based, mouse; settings: TRAP positive cells, FIG. 17
Procedure: Long bones from young C57B6 mice were harvested and bone marrow was extruded by gentle lavage of the bone marrow cavities with a 28 gage needle. The cells were screened, and red blood cells were removed using red blood cell lysis buffer (Sigma). Bone marrow cells were differentiated to macrophages using 20 ng/ml mouse MCSF (RnD systems) for 3 days (RPMI and 20% FCS). The cell were washed with PBS, and lifted with Accutase for 10 minutes.
The bone marrow macrophage cells were plated at 150,000 cells per well in a 96 well plate in a MEM 10% FCS. […] Then 25 ng/ml mouse MCSF with or without mouse RANKL (100 ng/ml, RnD systems) was added for 6 days. Media changes (including drugs) were done at day 3 and day 5. The cells were then fixed and stained with the tartrate resistant acid phosphatase (TRAP) assay kit from Sigma according to the manufactures instructions. TRAP positive cells (osteoclasts and cells undergoing an osteoclastic differentiation) in a transect of the triplicate wells (at 20× […]) were manually counted by going through the widest part of each well.

Lewis Lung Carcinoma = Lewis Lung Carcinoma model / LLC tumor brei model; format: in vivo, mouse
Oral half-life = format: in vivo; settings: plasma
Text: Compound BB's oral exposure is high in rat, dog and monkey. Good oral bioavailability and low clearance in rodent and non-rodent animal species results in high oral exposure.

[2] = tested on: LPS induced neutrophil influx in BALF; experiment: LPS-induced neutrophilia, oral administration; format: in vivo; settings: rat, p.o., 4 hours post-LPS challenge
Text: This study also includes assessment of the exposure to the compounds in plasma and lung tissues.

Human hep viability = format: cell-based; settings: human hepatocytes
[3] = Target organ toxicity (TOT) study, 10 days oral; format: in vivo; settings: rat
Procedure: A target organ toxicity (TOT) study was performed in rats. […] This study assessed clinical observations/mortality, body weights, clinical pathology, toxicokinetics, and histopathology of select tissues. The tissues studied were: Adrenal gland, Bone marrow (femur), Brain, Small Intestine (including GALT), Heart, Large Intestine, Kidney, Stomach, Liver, Pancreas, Spleen, Testis, and Thymus. Doses were selected based on repeat-dose tolerability study, PK and plasma protein binding, and cellular IC50s for PI3K isoforms. The doses selected were: high-dose: 50 mg/kg/day, expected to inhibit α, β, δ, and γ PI3K isoforms; Mid-high dose: 20 mg/kg/day, expected to inhibit β, δ, and γ PI3K isoforms; Mid-low dose: 7.5 mg/kg, expected to inhibit γ PI3K isoform only; and Low-dose: 1 mg/kg/day, expected to inhibit γ PI3K isoform only.

[4] = Stability in simulated gastric fluid; format: physicochemical
Text: The phyiscochemical properties of Compound BB are drug-like, and suitable for use of the compound as a drug.

[5] = tested on: CXCL12-induced pAKT in T-cells; experiment: CXCL12-induced pAKT assay in T-cells; format: cell-based, human; settings: FIG. 9
Text: There was a tight correlation between the EC50s observed in the CXCL12-induced pAKT assay and the T-cell migration assay.

[6] = tested on: monocytic iMCs in CT26 subcutaneous tumors; experiment: Flow cytometry of tumor-associated myeloid cells, CT26; format: in vivo, mouse; settings: FIG. 38B
Procedure: Flow cytometry was performed to obtain a more extensive cellular subset analysis. In particular, the study examined T cell vs. Myeloid cells, Myeloid cell subsets, Regulatory vs. effector T cells, and Tumor markers vs. WBC (e.g., PD-L1 expression on tumor).
Different populations of tumor-associated myeloid cells can be identified by flow cytometry, e.g., monocytic immature myeloid cells (iMC),Granulocytic iMCs/Neutrophils, Tumor Associated Macrophages (TAMs), and Granulocytic MDSCs. The different populations, and panels for detecting MDSCs, are described in Cancer Discovery 2011; 1:54-67. Tumors may vary in their myeloid cell composition.

[7] = tested on: CD11b+ myeloid cells in 4T1 tumors; experiment: Immunohistochemistry of tumor immune infiltrates (CD11b, CD68), 4T1; format: in vivo, mouse; settings: vs vehicle, day 13
Procedure: Immunohistochemistry was performed to determine the distribution of immune cells within the tumor. In particular, CD11b myeloid cells were examined, as were regulatory vs. effector T cells (CD3, CD4, CD8, FoxP3). Briefly, IHC for CD11b or CD68+ was performed as follows. CD11b antibodies were available from Abcam, clone I-70, Catalog #ab 8878. CD68 antibodies were available from Abcam, clone FA-11, catalog #ab 53444. Tissues were fixed in cold methanol, air-dried, and then stained using a Res IHC Omni-UltraMap HRP XT protocol.
Without being bound by a particular theory, the decrease in the pro-tumorigenic tumor associated myeloid cells can result in activation of cytotoxic T-cells and anti-tumor immunity. […] When the images were quantified as CD11b+ cells per total viable cells (FIG. 37E), a Student t-Test p-value of 0.0355 was obtained when comparing the Compound BB-treated cells to controls. When the images were quantified as CD11b+ stained area per total visible area (FIG. 37F), a Student t-Test p-value of 0.0441 was obtained when comparing the Compound BB-treated cells to controls. […] When the images were quantified as CD11b+ cells per total viable cells (FIG. 37G), a Student t-Test p-value of 0.0864 (d16) or 0.3967 (d22) was obtained when comparing the Compound BB-treated cells to controls. […]

SMILES: C[C@H](NC(=O)c1c(N)nn2cccnc12)c1cc2cccc(C#Cc3cnn(C)c3)c2c(=O)n1-c1ccccc1 [Compound BB]
- RANKL driven differentiation of osteoclasts from bone marrow macrophages [1]: prevents RANKL driven differentiation of osteoclasts
- CD206+ M2 polarized suppressive macrophages (Lewis Lung Carcinoma): reduces
- TAMs (Lewis Lung Carcinoma): decreased
- half-life (Oral half-life; dog, 5 mg/kg): ~7.1 h
- half-life (Oral half-life; monkey, 5 mg/kg): ~10.2 h
- half-life (Oral half-life; rat, 7.5 mg/kg): ~3.3 h
- Neutrophil in bronchoalveolar lavage fluid (BALF) [2]: reduced neutrophil
- IC50 (Human hep viability): 10 to 25 µM
- Decrease in body weights compared to vehicle ([3]; high dose animals (50 mg/kg/day)): 5-8%
- Histopathology, thymus ([3]; males ≥7.5 mg/kg/day, females 50 mg/kg/day): minimal/mild lymphoid depletion
- Mortality and clinical signs ([3]; oral 10 days, any dose level): No mortality or clinical signs were observed
- Tolerability, TOT study ([3]; oral, 1, 7.5, 20, 50 mg/kg/day): well-tolerated for 10 days
- Histopathology, spleen ([3]; primarily at doses ≥20 mg/kg/day): minimal/mild lymphoid depletion of the marginal zone and periarteriolar lymphoid sheaths (PALS)
- Stability in 38° simulated gastric fluid [4]: > 4 h
- Inhibition of CXCL12-induced pAKT in T-cells [5]: inhibited CXCL12-induced pAKT in T-cells more strongly than a PI3K-δ inhibitor
- Monocytic iMCs [6]: monocytic iMCs were decreased
- CD11b+ myeloid cell staining in viable regions of 4T1 tumors [7]: decrease in CD11b+ myeloid cell staining
